Measured values taken from paper PMC12454493, “Insight on novel sulfamoylphenyl pyrazole derivatives as anticancer carbonic anhydrase inhibitors” (Molecular Diversity, 2024).

What was measured:
Type in all cases: cell-based
PC-3 = experiment: NCI-60 one-dose SRB screen (Prostate Cancer); conditions: Homo sapiens, single dose 10 µM, 48 h, read-out: Growth inhibition percent (GI %)
Protocol: (§1) The National Cancer Institute (NCI) Developmental Therapeutic Program (www.dtp.nci.nih.gov) selected the 20 novel synthesized compounds 4a-e, 5a-e, 6a-c, 9a-e, 10 and 11 to test for their anticancer activity at a single dose of 10 µM using SRB assay. […] Supplementary Data S3; Table S1 presents the detailed screening results of the most promising compounds. The preliminary screening’s detailed results for the remaining compounds are elucidated in the (Supplementary Data S3; Table S2).
(§2) The guidelines of the Drug Evaluation Branch’s protocol at the NCI in Bethesda served as the basis for the in vitro anticancer screening assays. at one dose 10 µM against a panel of 60 cancer cell lines. The human tumor cell lines used belonged to nine panels: leukemia, melanoma, lung, colon, CNS, ovarian, renal, prostate and breast cancers using the sulforhodamine B (SRB) assay in a 48 h drug exposure protocol.

DU-145 = experiment: NCI-60 one-dose SRB screen (Prostate Cancer); conditions: Homo sapiens, single dose 10 µM, 48 h, read-out: Growth inhibition percent (GI %)
Protocol: as §1, §2

SF-268 = experiment: NCI-60 one-dose SRB screen (CNS Cancer); conditions: Homo sapiens, single dose 10 µM, 48 h, read-out: Growth inhibition percent (GI %)
Protocol: as §1, §2

SF-539 = experiment: NCI-60 one-dose SRB screen (CNS Cancer); conditions: Homo sapiens, single dose 10 µM, 48 h, read-out: Growth inhibition percent (GI %)
Protocol: as §1, §2

SNB-19 = experiment: NCI-60 one-dose SRB screen (CNS Cancer); conditions: Homo sapiens, single dose 10 µM, 48 h, read-out: Growth inhibition percent (GI %)
Protocol: as §1, §2

SF-295 = experiment: NCI-60 one-dose SRB screen (CNS Cancer); conditions: Homo sapiens, single dose 10 µM, 48 h, read-out: Growth inhibition percent (GI %)
Protocol: as §1, §2

SNB-75 = experiment: NCI-60 one-dose SRB screen (CNS Cancer); conditions: Homo sapiens, single dose 10 µM, 48 h, read-out: Growth inhibition percent (GI %)
Protocol: as §1, §2

U251 = experiment: NCI-60 one-dose SRB screen (CNS Cancer); conditions: Homo sapiens, U-251, single dose 10 µM, 48 h, read-out: Growth inhibition percent (GI %)
Protocol: as §1, §2

MOLT-4 = experiment: NCI-60 one-dose SRB screen (Leukemia); conditions: Homo sapiens, single dose 10 µM, 48 h, read-out: Growth inhibition percent (GI %)
Protocol: as §1, §2

K-562 = experiment: NCI-60 one-dose SRB screen (Leukemia); conditions: Homo sapiens, K562, single dose 10 µM, 48 h, read-out: Growth inhibition percent (GI %)
Protocol: as §1, §2

HL-60(TB) = experiment: NCI-60 one-dose SRB screen (Leukemia); conditions: Homo sapiens, single dose 10 µM, 48 h, read-out: Growth inhibition percent (GI %)
Protocol: as §1, §2

RPMI-8226 = experiment: NCI-60 one-dose SRB screen (Leukemia); conditions: Homo sapiens, single dose 10 µM, 48 h, read-out: Growth inhibition percent (GI %)
Protocol: as §1, §2

SR = experiment: NCI-60 one-dose SRB screen (Leukemia); conditions: Homo sapiens, single dose 10 µM, 48 h, read-out: Growth inhibition percent (GI %)
Protocol: as §1, §2

CCRF-CEM = experiment: NCI-60 one-dose SRB screen (Leukemia); conditions: Homo sapiens, single dose 10 µM, 48 h, read-out: Growth inhibition percent (GI %)
Protocol: as §1, §2

KM12 = experiment: NCI-60 one-dose SRB screen (Colon Cancer); conditions: Homo sapiens, single dose 10 µM, 48 h, read-out: Growth inhibition percent (GI %)
Protocol: as §1, §2

HCT-15 = experiment: NCI-60 one-dose SRB screen (Colon Cancer); conditions: Homo sapiens, single dose 10 µM, 48 h, read-out: Growth inhibition percent (GI %)
Protocol: as §1, §2

HCC-2998 = experiment: NCI-60 one-dose SRB screen (Colon Cancer); conditions: Homo sapiens, single dose 10 µM, 48 h, read-out: Growth inhibition percent (GI %)
Protocol: as §1, §2

COLO 205 = experiment: NCI-60 one-dose SRB screen (Colon Cancer); conditions: Homo sapiens, single dose 10 µM, 48 h, read-out: Growth inhibition percent (GI %)
Protocol: as §1, §2

HT29 = experiment: NCI-60 one-dose SRB screen (Colon Cancer); conditions: Homo sapiens, HT-29, single dose 10 µM, 48 h, read-out: Growth inhibition percent (GI %)
Protocol: as §1, §2

SW-620 = experiment: NCI-60 one-dose SRB screen (Colon Cancer); conditions: Homo sapiens, single dose 10 µM, 48 h, read-out: Growth inhibition percent (GI %)
Protocol: as §1, §2

HCT-116 = experiment: NCI-60 one-dose SRB screen (Colon Cancer); conditions: Homo sapiens, single dose 10 µM, 48 h, read-out: Growth inhibition percent (GI %)
Protocol: as §1, §2

UACC-62 = experiment: NCI-60 one-dose SRB screen (Melanoma); conditions: Homo sapiens, single dose 10 µM, 48 h, read-out: Growth inhibition percent (GI %)
Protocol: as §1, §2

LOX IMVI = experiment: NCI-60 one-dose SRB screen (Melanoma); conditions: Homo sapiens, single dose 10 µM, 48 h, read-out: Growth inhibition percent (GI %)
Protocol: as §1, §2

MDA-MB-435 = experiment: NCI-60 one-dose SRB screen (Melanoma); conditions: Homo sapiens, single dose 10 µM, 48 h, read-out: Growth inhibition percent (GI %)
Protocol: as §1, §2

SK-MEL-28 = experiment: NCI-60 one-dose SRB screen (Melanoma); conditions: Homo sapiens, single dose 10 µM, 48 h, read-out: Growth inhibition percent (GI %)
Protocol: as §1, §2

M14 = experiment: NCI-60 one-dose SRB screen (Melanoma); conditions: Homo sapiens, single dose 10 µM, 48 h, read-out: Growth inhibition percent (GI %)
Protocol: as §1, §2

MALME-3M = experiment: NCI-60 one-dose SRB screen (Melanoma); conditions: Homo sapiens, single dose 10 µM, 48 h, read-out: Growth inhibition percent (GI %)
Protocol: as §1, §2

SK-MEL-2 = experiment: NCI-60 one-dose SRB screen (Melanoma); conditions: Homo sapiens, single dose 10 µM, 48 h, read-out: Growth inhibition percent (GI %)
Protocol: as §1, §2

SK-MEL-5 = experiment: NCI-60 one-dose SRB screen (Melanoma); conditions: Homo sapiens, single dose 10 µM, 48 h, read-out: Growth inhibition percent (GI %)
Protocol: as §1, §2

UACC-257 = experiment: NCI-60 one-dose SRB screen (Melanoma); conditions: Homo sapiens, single dose 10 µM, 48 h, read-out: Growth inhibition percent (GI %)
Protocol: as §1, §2

Compound CCOC(=O)c1ccc(NC(=O)COC(=O)c2cn(-c3ccc(S(N)(=O)=O)cc3)nc2-c2ccccc2)cc1 [Compound 5a, 2-[(4-(Ethoxycarbonyl)phenyl)amino]-2-oxoethyl 3-phenyl-1-(4-sulfamoylphenyl)-1H-pyrazole-4-carboxylate] has an inhibition at 10 µM (PC-3) of 68.1%, an inhibition at 10 µM (DU-145) of 29.1% and an inhibition at 10 µM (SF-268) of 52.2%. For the same compound, the inhibition at 10 µM (SF-539) was 46%, the inhibition at 10 µM (SNB-19) was 60.9% and the inhibition at 10 µM (SF-295) was 60%. The inhibition at 10 µM (SNB-75) was 60.6%, the inhibition at 10 µM (U251) was 58.5% and the inhibition at 10 µM (MOLT-4) was 89%. It also gave an inhibition at 10 µM (K-562) of 78.7%, an inhibition at 10 µM (HL-60(TB)) of 92.1% and an inhibition at 10 µM (RPMI-8226) of 86.8%. It also gave an inhibition at 10 µM (SR) of 82.1%, an inhibition at 10 µM (CCRF-CEM) of 82% and an inhibition at 10 µM (KM12) of 73.6%. For the same compound, the inhibition at 10 µM (HCT-15) was 72.7%, the inhibition at 10 µM (HCC-2998) was 63.9% and the inhibition at 10 µM (COLO 205) was 39.1%. It also gave an inhibition at 10 µM (HT29) of 78.8%, an inhibition at 10 µM (SW-620) of 47.1% and an inhibition at 10 µM (HCT-116) of 75.8%. For the same compound, the inhibition at 10 µM (UACC-62) was 55.2%, the inhibition at 10 µM (LOX IMVI) was 69.2% and the inhibition at 10 µM (MDA-MB-435) was 45.1%. It also gave an inhibition at 10 µM (SK-MEL-28) of 54.5%, an inhibition at 10 µM (M14) of 63.5% and an inhibition at 10 µM (MALME-3M) of 79.1%. For the same compound, the inhibition at 10 µM (SK-MEL-2) was 50.8%, the inhibition at 10 µM (SK-MEL-5) was 70.1% and the inhibition at 10 µM (UACC-257) was 48%.
